# Key:
# [1] = system: HSV-1 KOS; assay: Plaque reduction assay, HSV-1 KOS; type: cell-based; details: Table 1, plaque reduction, Vero cells; read-out: IC50 (uM), HSV-1 KOS
# Method: (§1) Antiviral activity of compounds against herpesviruses such as HSV-1, HSV-2, or HCMV can be measured using plaque reduction assays. 0.1 ml of media containing approximately 50 PFU of virus is added to each well of a 24-well cell culture dish containing a confluent monolayer of cells (Vero cells for HSV-1 and HSV-2, HFF cells for HCMV). Compounds are dissolved in 100% DMSO and diluted in 100% DMSO as 200× stocks of the desired final drug concentration. Typically 5-6 two-fold dilutions are prepared for each compound. Dilutions of compounds are then added to media containing 0.8% CMC resulting in a final 1× drug concentration. After the virus-infected cells have incubated for 1 h at 37° C., the virus innoculum is removed and 1 ml of media containing 0.8% CMC and the various concentrations of compound is added to each well of the dish. The dish is incubated at 37° C. for approximately 2-3 days (HSV-1 and HSV-2) or 6-9 days (HCMV) to allow sufficient growth of virus to form plaques in the cell monolayer. Plaques can be observed and counted microscopically or by staining the cells with 0.1% crystal violet in 20% ethanol. […] Antiviral activity of a compound is expressed as the concentration of compound predicted to reduce the number of plaques in a well by 50% (IC50). The IC50 values are calculated by plotting the per cent inhibition vs. concentration of compound using EXCEL software for linear regression.
# (§2) A panel of viruses consisting of four strains of HSV-1 (KOS, F, DJL, Patton) and three strains of HSV-2 (MS, 35D, 186) are tested in a plaque reduction assay against four different 4-oxo-DHQ compounds (#1, 2, 4, 5 as shown in FIG. 1), and one 4-oxo-DHTP compound (#3 as shown in FIG. 1) and against Acyclovir. The six drugs inhibited replication of the seven virus strains with IC50 values ranging from 2-10 μM (Table 1). In order to select for 4-oxo-DHQ resistant mutants, HSV-1 strains KOS, F, and DJL along with HSV-2 strains 186 and MS are serially passaged in the presence of 20 uM compound 1. Following the seventh passage, 4-oxo-DHQ resistant virus from each strain are plaque purified three times and high-titer stocks are made.
# [2] = system: HSV-1 DJL; assay: Plaque reduction assay, HSV-1 DJL; type: cell-based; details: Table 1, plaque reduction, Vero cells
# Method: as §1, §2
# [3] = system: HSV-1 DJL-M1 (V823A); assay: Plaque reduction assay, 4-oxo-DHQ resistant HSV-1 DJL-M1; type: cell-based; details: Table 2, mutant V823A
# Method: (§3) Antiviral activity of compounds against herpesviruses such as HSV-1, HSV-2, or HCMV can be measured using plaque reduction assays. 0.1 ml of media containing approximately 50 PFU of virus is added to each well of a 24-well cell culture dish containing a confluent monolayer of cells (Vero cells for HSV-1 and HSV-2, HFF cells for HCMV). Compounds are dissolved in 100% DMSO and diluted in 100% DMSO as 200× stocks of the desired final drug concentration. Typically 5-6 two-fold dilutions are prepared for each compound. Dilutions of compounds are then added to media containing 0.8% CMC resulting in a final 1× drug concentration. After the virus-infected cells have incubated for 1 h at 37° C., the virus innoculum is removed and 1 ml of media containing 0.8% CMC and the various concentrations of compound is added to each well of the dish. The dish is incubated at 37° C. for approximately 2-3 days (HSV-1 and HSV-2) or 6-9 days (HCMV) to allow sufficient growth of virus to form plaques in the cell monolayer. Plaques can be observed and counted microscopically or by staining the cells with 0.1% crystal violet in 20% ethanol. […] The IC50 values are calculated by plotting the per cent inhibition vs. concentration of compound using EXCEL software for linear regression. […]
# [4] = system: HSV-2 MS-M1 (V826A); assay: Plaque reduction assay, 4-oxo-DHQ resistant HSV-2 MS-M1; type: cell-based; details: Table 2, mutant V826A; read-out: IC50 (uM), HSV-2 MS-M1
# Method: as §1
# Vero cells are plated out at a density of 3.5×10^5 cells per well in a six well tissue culture plate. Cells are infected with HSV-1 KOS at a multiplicity of infection (moi) of 0.1 pfu/cell and 1 h post infection the cells are overlayed with 3 ml media containing 20 uM of a 4-oxo-DHQ. Cultures are incubated for 20 h at 37° C., freeze/thawed to release cell-associated virus, and 0.1 ml of culture is used to infect a new monolayer of Vero cells (one passage). Serial passage is repeated seven times in the presence of 20 uM drug. Virus isolates are then plaque purified three times prior to preparation of stocks. 4-oxo-DHQ resistant HSV-1 and HSV-2 may also be selected by the marker transfer method described below using wild-type HSV DNA and the corresponding mutant HSV polymerase gene.
# as §2
# [5] = molecular target: HCMV (wild) polymerase (Human cytomegalovirus, UniProt P08546); assay: In vitro polymerase assay, wild HCMV polymerase; type: biochemical; details: Table 3
# Chain of HCMV (wild) polymerase (P08546 whole entry): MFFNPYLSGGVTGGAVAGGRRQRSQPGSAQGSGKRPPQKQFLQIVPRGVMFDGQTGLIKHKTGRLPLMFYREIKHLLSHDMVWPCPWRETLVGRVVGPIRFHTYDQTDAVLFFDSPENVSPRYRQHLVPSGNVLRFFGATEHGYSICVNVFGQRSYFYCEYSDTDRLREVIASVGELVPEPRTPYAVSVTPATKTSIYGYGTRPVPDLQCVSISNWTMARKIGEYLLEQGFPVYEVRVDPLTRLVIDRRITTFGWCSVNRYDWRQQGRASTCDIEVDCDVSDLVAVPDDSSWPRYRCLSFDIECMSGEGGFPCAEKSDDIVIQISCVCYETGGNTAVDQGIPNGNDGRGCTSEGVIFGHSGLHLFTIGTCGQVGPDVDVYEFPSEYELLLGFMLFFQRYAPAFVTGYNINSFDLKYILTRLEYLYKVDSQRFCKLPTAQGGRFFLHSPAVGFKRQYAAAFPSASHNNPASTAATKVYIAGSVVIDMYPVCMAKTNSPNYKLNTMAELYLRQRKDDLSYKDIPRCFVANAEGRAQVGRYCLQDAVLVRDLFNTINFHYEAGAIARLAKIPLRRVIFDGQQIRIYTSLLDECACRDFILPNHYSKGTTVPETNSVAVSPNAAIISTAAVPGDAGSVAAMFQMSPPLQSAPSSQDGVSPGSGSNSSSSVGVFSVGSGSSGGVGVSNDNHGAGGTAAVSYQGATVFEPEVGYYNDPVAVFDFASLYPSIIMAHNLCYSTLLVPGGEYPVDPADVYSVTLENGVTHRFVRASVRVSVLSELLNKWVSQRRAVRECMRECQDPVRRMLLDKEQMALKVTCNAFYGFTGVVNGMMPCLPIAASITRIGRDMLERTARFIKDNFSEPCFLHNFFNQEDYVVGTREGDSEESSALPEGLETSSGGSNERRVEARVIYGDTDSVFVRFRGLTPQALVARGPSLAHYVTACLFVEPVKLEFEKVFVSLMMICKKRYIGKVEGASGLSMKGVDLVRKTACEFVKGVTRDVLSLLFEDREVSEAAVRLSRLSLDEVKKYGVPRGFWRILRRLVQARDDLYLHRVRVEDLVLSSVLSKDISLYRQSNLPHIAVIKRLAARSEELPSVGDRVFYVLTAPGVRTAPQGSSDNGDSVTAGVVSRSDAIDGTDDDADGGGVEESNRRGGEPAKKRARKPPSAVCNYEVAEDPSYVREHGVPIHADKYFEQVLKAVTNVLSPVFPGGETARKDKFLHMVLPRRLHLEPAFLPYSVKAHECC
# Method: In order to select for a 4-oxo-DHQ HCMV resistant mutant, virus (strain AD169) is serially passaged in the presence of 20 uM a 4-oxo-DHQ. […] In order to determine if both valines need to be changed in order to confer resistance to the 4-oxo-DHQ's, in vitro polymerase assays are done using mutant HCMV polymerases containing either V823A or V823A plus V824L (Table 3).
# [6] = system: HCMV AD169-M1 (V823A, V824L); assay: Plaque reduction assay, 4-oxo-DHQ resistant HCMV AD169-M1; type: cell-based; details: Table 4, plaque reduction, resistant mutant; read-out: HCMV AD169 - M1 IC50
# Method: as §1
# A plasmid containing the wild-type HCMV polymerase gene is modified to contain the V823A or V823A and V824L mutations using a site-directed mutagenesis Kit (Stratagene Corp.) and following the manufactures's protocol. HFF cells are plated into T25 tissue culture flasks to achieve 80% confluency at the time of the transfection. Wild type HCMV AD 169 DNA and plasmid DNA containing the mutant HCMV polymerase gene are mixed at a ratio of 1:2 (2 ug of viral DNA to 4 ug of plasmid DNA). DNA's are transfected using superfect transfection reagent according to methods recommended by the manufacturer (Quiagen Inc.). Cells are harvested five days posttransfection, freeze-thawed to release virus and half of the sample is used to infect HFF cell monolayers. Cells are overlayed with media containing 20 uM 4-oxo-DHQ compound 2 (see FIG. 1). Serial passage is repeated seven times in the presence of 20 uM compound 2 and virus isolates are then plaque purified three times prior to preparation of viral stock.
# In order to isolate an HCMV resistant mutant marker rescue experiments are done. Plasmids containing the mutant polymerase genes are transfected into HFF cells along with wild type HCMV AD169 DNA. The resulting virus is then serially passaged in the presence of 20 uM compound 1 (see FIG. 1). A 4-oxo-DHQ resistant virus is isolated from marker rescue studies done with the HCMV polymerase gene containing mutations that result in the V823A, V824L amino acid changes, but not with the gene containing V823A change alone.
# [7] = system: 4-oxo-DHQ resistant HSV-1, HSV-2 and HCMV mutants; assay: Plaque reduction assay, 4-oxo-DHQ resistant mutants compared with parent virus; type: cell-based; details: HSV-1 and HSV-2 mutants
# Method: as §3
smiles,measurement,setting,value
Cn1cc(C(=O)NCc2ccc(Cl)cc2)c(=O)c2cc(/C=C\CO)cc(F)c21 [Compound 1],IC50,[1],2 µM
same,IC50,[2],2.5 µM
same,IC50,[3],> 20 µM
same,IC50,[4],> 20 µM
same,IC50,[5],4.6 µM
same,IC50,[6],4.7 µM
same,"increase in IC50, HSV mutants selected with compound 1",[7],> 10 fold
